Columns and labels:
[1] = molecular target: D(3) dopamine receptor (Homo sapiens, UniProt P35462); assay: biochemical
Description: Binding affinity towards Dopamine receptor D3 using CHO cell line and [3H]-spiperone as radioligand

[2] = molecular target: T1, D(4) dopamine receptor (Homo sapiens, UniProt P21917); assay: biochemical
T1 sequence (P21917 whole entry): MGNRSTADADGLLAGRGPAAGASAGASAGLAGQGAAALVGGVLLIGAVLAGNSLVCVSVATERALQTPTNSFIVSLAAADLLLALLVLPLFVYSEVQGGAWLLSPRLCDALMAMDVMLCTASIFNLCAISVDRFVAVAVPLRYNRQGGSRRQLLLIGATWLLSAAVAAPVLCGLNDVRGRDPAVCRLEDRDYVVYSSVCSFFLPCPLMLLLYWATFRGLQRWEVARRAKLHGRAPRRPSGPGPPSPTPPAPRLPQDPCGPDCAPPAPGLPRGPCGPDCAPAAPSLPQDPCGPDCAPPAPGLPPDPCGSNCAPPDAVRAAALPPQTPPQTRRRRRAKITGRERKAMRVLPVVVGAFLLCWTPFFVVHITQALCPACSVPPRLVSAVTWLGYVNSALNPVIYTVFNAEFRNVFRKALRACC
Description: Binding affinity towards Dopamine receptor D 4.4 using CHO cell line and [3H]spiperone as radioligand

[3] = molecular target: T2, D(2) dopamine receptor (Homo sapiens, UniProt P14416); assay: biochemical
Description: Binding affinity towards Dopamine D2L receptor using CHO cell line and [3H]spiperone as radioligand

[4] = molecular target: T2, D(2) dopamine receptor; assay: biochemical; remark: listed apart in the source
Description: Binding affinity towards Dopamine D2S receptor using CHO cell line and [3H]spiperone as radioligand

[5] = molecular target: D(1A) dopamine receptor (Sus scrofa, UniProt P50130); assay: Binding affinity towards Dopamine receptor D1 using porcine striatal membrane and [3H]-SCH- 23390 as radioligand; design: species or system Striatum
[6] = Binding affinity towards 5-HT2 receptor using porcine cortical membrane and [3H]ketanserin as radioligand; design: species or system Sus scrofa

T2 sequence (P14416 whole entry): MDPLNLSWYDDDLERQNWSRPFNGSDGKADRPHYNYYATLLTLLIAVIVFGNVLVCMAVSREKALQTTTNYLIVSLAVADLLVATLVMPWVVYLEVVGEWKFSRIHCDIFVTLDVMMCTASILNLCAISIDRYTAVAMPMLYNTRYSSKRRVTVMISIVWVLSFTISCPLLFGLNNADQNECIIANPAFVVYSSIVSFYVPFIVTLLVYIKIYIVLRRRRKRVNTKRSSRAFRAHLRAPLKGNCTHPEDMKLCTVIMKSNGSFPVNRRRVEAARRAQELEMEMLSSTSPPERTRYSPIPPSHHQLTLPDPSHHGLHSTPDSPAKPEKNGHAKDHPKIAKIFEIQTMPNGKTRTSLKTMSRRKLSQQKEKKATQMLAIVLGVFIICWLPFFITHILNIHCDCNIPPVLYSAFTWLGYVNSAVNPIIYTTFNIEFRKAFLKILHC
D(1A) dopamine receptor, sequence (P50130 whole entry): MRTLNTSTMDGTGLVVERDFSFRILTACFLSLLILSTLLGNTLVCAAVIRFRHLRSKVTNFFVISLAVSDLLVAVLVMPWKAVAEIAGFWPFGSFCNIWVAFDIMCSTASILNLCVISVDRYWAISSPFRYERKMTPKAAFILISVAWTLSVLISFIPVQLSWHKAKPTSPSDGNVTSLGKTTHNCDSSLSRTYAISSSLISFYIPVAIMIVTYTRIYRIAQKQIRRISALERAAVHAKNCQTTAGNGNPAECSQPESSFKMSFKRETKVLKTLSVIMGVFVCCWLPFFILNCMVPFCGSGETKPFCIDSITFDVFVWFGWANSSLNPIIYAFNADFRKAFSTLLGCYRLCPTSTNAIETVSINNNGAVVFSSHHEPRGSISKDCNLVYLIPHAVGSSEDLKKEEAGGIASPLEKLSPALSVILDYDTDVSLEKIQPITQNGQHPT
D(3) dopamine receptor, sequence (P35462 whole entry): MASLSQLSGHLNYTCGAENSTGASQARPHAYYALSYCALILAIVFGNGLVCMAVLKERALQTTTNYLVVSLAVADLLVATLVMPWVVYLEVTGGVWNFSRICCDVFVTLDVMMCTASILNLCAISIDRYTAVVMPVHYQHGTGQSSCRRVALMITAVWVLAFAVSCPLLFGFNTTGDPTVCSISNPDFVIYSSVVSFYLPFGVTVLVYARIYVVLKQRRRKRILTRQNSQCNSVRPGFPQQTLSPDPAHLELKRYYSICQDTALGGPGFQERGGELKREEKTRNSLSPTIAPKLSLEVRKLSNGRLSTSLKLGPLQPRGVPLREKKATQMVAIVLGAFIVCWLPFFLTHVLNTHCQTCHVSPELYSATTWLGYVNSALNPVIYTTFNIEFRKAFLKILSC

SMILES | Ki [1] [nM] | Ki [2] [nM] | Ki [3] [nM] | Ki [4] [nM] | Ki [5] [nM] | Ki [6] [nM]
COc1ccccc1N1CCN(CCCCNC(=O)c2ccc(F)nc2)CC1 | 14 | 130 | 160 | 240 | 6300 | 3700
O=S(=O)(NCCCCN1CCN(c2cccc(Cl)c2Cl)CC1)c1ccc(F)cc1 | 16 | 17 | 39 | 49 | 1800 | 830
O=C(NCCCCN1CCN(c2cccc(Cl)c2Cl)CC1)c1cc2ccccc2s1 |  |  |  |  |  | 3000
O=C(NCCCCN1CCN(c2cccc(Cl)c2Cl)CC1)c1ccc(F)cc1 | 0.53 | 44 |  | 18 | 920 | 230

Next, values leading:

Ki [1] [nM] | Ki [2] [nM] | Ki [3] [nM] | Ki [4] [nM] | Ki [5] [nM] | Ki [6] [nM] | SMILES
210 | 9.9 | 72 | 120 | 3500 |  | COc1ccccc1N1CCN(CCCCNS(=O)(=O)c2ccc(F)cc2)CC1
9 | 97 | 44 | 57 | 910 | 240 | O=C(NCCCCN1CCN(c2cccc(Cl)c2Cl)CC1)c1cccc(F)n1
 |  |  |  |  | 2300 | COc1ccccc1N1CCN(CCCCNC(=O)c2ccc(F)cc2)CC1
1.1 | 100 | 21 | 29 | 1300 | 84 | O=C(NCCCCN1CCN(c2cccc(Cl)c2Cl)CC1)c1ccc(F)nc1
86 | 76 | 260 | 400 | 4100 | 3200 | COc1ccccc1N1CCN(CCCCNC(=O)c2cccc(F)n2)CC1

Source: ChEMBL document CHEMBL1143473, “Synthesis and evaluation of 18F-labeled dopamine D3 receptor ligands as potential PET imaging agents” (Bioorg Med Chem Lett, 2005)
